This is an account of results in patent US20260335388A1, “COMBINATION THERAPIES WITH ONCOLYTIC ADENOVIRUS AND TOPOISOMERASE I INHIBITORS OR PRODRUGS THEREOF” (priority 2022, published 2026).

Each structure is given as a SMILES string. Like-named read-outs stand apart in the source and are kept apart here.

For assay [1], the system named is E1A, E1B, E2F-1, p53 and cPARP. As to the kind of experiment: Expression of viral genes and proteins by treatment sequence, Y79 cells. The format is cell-based. The method, then: The expression of viral genes E1A and E1B was studied in 6-well culture plates containing 2×10^6 retinoblastoma cells. […] The experiments were controlled by adding culture medium instead of topotecan. […] Real time quantitative polymerase chain reactions (RT-qPCR) were carried out to analyze gene expression using SYBR technology (Thermo Fisher Scientific).
In all experiments, 6-well culture plates containing 2×10^6 cells were used. […] The experiments were controlled by adding culture medium instead of the second treatment. […] The analyses were expanded to other chemotherapeutic agents including hydroxyurea ([…]), etoposide (2 μM), irinotecan (10 μM) or SN-38 (1 μM).
Near-infrared labeled secondary antibodies (Odyssey CLx, LI-COR Inc. Bad Homburg, Germany) were used for detection.

For assay [2], the system named is HSJD-RBVS-10 retinoblastoma cells. Put plainly: cells. The assay is classed as cell-based. The following applies: Homo sapiens.
Assay [3] deals with RBT-7 xenografts. Put plainly: Ocular survival, RBT-7 intraocular xenografts. The format is in vivo, mouse. The following applies: control 35 days; combination P<0.0001 (FIG. 20C). The method, then:
Antitumor activity in retinoblastoma. For orthotopic intraocular engraftments 2×10^5 retinoblastoma cells were inoculated per eye, in 2 μL matrigel (Pascual-Pasto et al., 2016). To obtain s.c. xenografts 10^6 cells were injected in 25 μl matrigel. For ocular tumors, treatments were started at day 8 after inoculation (when tumors were appreciable by fundus examination). For s.c. tumors, treatments were started when volumes achieved 100-300 mm^3 (day 1). After treatments, the survivors were followed up until endpoint and the median survival of each group was calculated, as described previously (Mandigo et al., 2022; Rodríguez-García et al., 2015).
In a second experiment, the sequence of administration of one injection of VCN-01 and one 5-day cycle of topotecan was addressed. Mice with intraocular tumors (Y79 or RBT-7) received either topotecan 0.6 mg/kg, i.p. on days 8-12, one intravitreal injection of VCN-01 (3×10^8 vp) on day 8, or the combination of topotecan and VCN-01. Y79-bearing mice also received a switched treatment sequence, with VCN-01 on day 12, after the last dose of topotecan.

Where [4] appears, read: topotecan pretreatment before VCN-01 (FIG. 13E).

As usually defined, the IC50 is the point on the concentration scale where inhibition reaches its midpoint. As to `CC[C@@]1(O)C(=O)OCc2c1cc1n(c2=O)Cc2cc3c(CN(C)C)c(O)ccc3nc2-1` [Topotecan, topotecan], the “E1A expression, VCN-01 first” value in assay [1] (topotecan addition after the virus (FIG. 13E,F)) is listed as “up to two orders of magnitude”. Besides, in assay [1] (topotecan addition after the virus (FIG. 13G)), the “E1B expression, VCN-01 first” value is listed as “up to two orders of magnitude”. Moreover, the “E2F-1 level, topotecan first” value in assay [1] (setting [4]) is given as “accumulation of E2F-1”. In addition, the “p53 and cPARP expression, topotecan first” value in assay [1] (setting [4]) was “increased expression of proapoptotic proteins p53 and cPARP”. Further, the “E1A expression (protein and gene), topotecan first” value in assay [1] (topotecan pretreatment before VCN-01 (FIG. 13E,F)) was “low expression of E1A (protein and gene)”. In addition, the concentration for half-maximal inhibition (IC50) was determined as 29.6 nM in assay [2] (read-out: IC50, Topotecan single agent) and 126 nM in assay [2] (read-out: IC50, Topotecan with VCN-01 (10 MOI)). Also, the median survival in assay [3] worked out at 39 days.
